# Measured values reported in paper PMC12073438, “Stereoselectivity of In Vivo Processes and Bioactivity of Farrerol Enantiomers” (Molecules, 2025).
# Where two headings read alike, the source gives them in different places.
# Tests used:
# [1] = Stereoselective pharmacokinetics in rat kidney tissue; assay type: in vivo, Sprague–Dawley rats; conditions: rat kidney, oral 40 mg/kg farrerol racemate; for Cmax / AUC(0–t) / AUC(0–∞): 40 mg/kg
# Description: Forty-two rats were divided randomly into seven groups (6 rats per time point at 0.5, 1, 2, 4, 8, 12, and 24 h) and were orally administered farrerol racemate at a dose of 40 mg/kg. Rats from each group were euthanized, and kidney and liver tissues were subsequently obtained. After washing three times using 0.9% sodium chloride solution, the attached blood and fat tissues were removed. Afterward, 0.5 g of the precisely weighed liver and kidney tissues were added to 1 mL 0.9% sodium chloride solution and homogenized in an ice bath. Subsequently, 150 µL of supernatant was transferred into a 2.0 mL EP tube for pre-treatment, in the same way as the pretreatment of plasma samples (see Section 3.4.1).
# Stereoselective chromatographic analysis of farrerol enantiomers was conducted utilizing an ACQUITY UPLC I-Class UPLC system (Waters, Milford, MA, USA), which is equipped with a quaternary pump and an autosampler. The chiral separation was carried out employing a Chiralpak OJ-RH column (250 mm × 4.6 mm, 5 μm), which was obtained from Daicel Chemical Industries (Shanghai, China). The mobile phase consisted of ACN-H2O (60:40, v/v), and the constant flow rate was 0.5 mL/min. The column temperature was set at 25 °C, and the injection volume was 10 μL.
# Mass detection was conducted using a triple quadrupole mass spectrometer (Waters Co., USA) equipped with an electrospray ionization (ESI) source. The detection of enantiomers and internal standards (IS) was carried out in multiple reaction monitoring (MRM) mode utilizing negative ionization. The m/z 299→179 for enantiomers and m/z 267→252 for IS were selected as detecting ions for quantitation. The collision energies (CE) were established at 22 eV and 20 eV, respectively. The primary mass spectrometry (MS) parameters were configured as follows: capillary voltage was set to 3.5 kV, ion source temperature was maintained at 150 °C, desolvation gas flow rate was 800 L/h, and the cone voltage (CV) was adjusted to 1.3 V.
# Pharmacokinetic analysis was conducted utilizing the Drug and Statistics (DAS) 2.0 software provided by the Chinese Pharmacological Society. To assess the differences in pharmacokinetic parameters, the IC50 values of the evaluated CYP enzymes and the permeability coefficients between the two farrerol enantiomers, paired sample t-tests and independent sample t-tests were performed. Statistical significance was defined as * p < 0.05 and ** p < 0.01. All results are presented as mean values ± standard deviation (SD).
# [2] = molecular target: T1, CYP1A2 (Homo sapiens, UniProt P05177); test: CYP inhibition in liver microsomes (phenacetin); conditions: IC50, CYP 1A2, marker substrate phenacetin
# T1 sequence (P05177 1-516): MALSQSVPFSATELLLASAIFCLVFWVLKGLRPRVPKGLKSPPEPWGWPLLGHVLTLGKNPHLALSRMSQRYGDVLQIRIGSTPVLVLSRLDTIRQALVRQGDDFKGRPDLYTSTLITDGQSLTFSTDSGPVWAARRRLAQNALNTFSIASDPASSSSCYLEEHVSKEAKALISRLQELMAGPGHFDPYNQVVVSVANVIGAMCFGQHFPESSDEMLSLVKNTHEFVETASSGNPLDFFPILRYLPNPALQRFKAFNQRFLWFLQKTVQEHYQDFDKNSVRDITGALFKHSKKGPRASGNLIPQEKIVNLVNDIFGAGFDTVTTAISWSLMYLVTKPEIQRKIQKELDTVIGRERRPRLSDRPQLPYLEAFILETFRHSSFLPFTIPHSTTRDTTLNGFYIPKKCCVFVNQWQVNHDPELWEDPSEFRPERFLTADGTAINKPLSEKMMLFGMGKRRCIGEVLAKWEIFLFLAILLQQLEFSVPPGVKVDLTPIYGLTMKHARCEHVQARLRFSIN
# Description: (§1) A liver microsome working solution (20 mg/mL) contained potassium phosphate buffer (0.1 M, pH 7.4), hepatic microsomes and marker substrate solution, which phenacetin, diclofenic acid, S-mephenytoinwer, dextromethorphan, midazolam, coumarin and chlorzoxazone used as substrates for […], CYP2C9, CYP2C19, CYP2D6, CYP3A4/5, CYP2A6 and CYP2E1, respectively. In brief, 238.5 µL of liver microsome working solution was placed in a 1 mL EP tube. […] The reaction was started by injecting NADPH (1 mM), and the resulting mixture was incubated at 37 °C for 10 min. After centrifuging at 4000 rpm for 15 min, the supernatant was transferred and analyzed using LC-MS/MS to detect the corresponding metabolites. Each incubation was conducted in triplicate (n = 3).
# An API 4000 LC/tandem mass spectrometry was used to analyze the concentration of metabolites of various chemical agents using a validated mode. An Atlantis T3 column (2.1 mm × 50 mm, 5 μm) was utilized, employing mobile phases consisting of a 0.1% formic acid solution (A) and a 0.1% acetonitrile formate solution (B). […] As for the detection of CYP 2E1 metabolite, the Flow composition was as follows: 0–0.30 min, 10% B; 0.30–1.30 min, 10–55% B; 1.30–1.50 min, 55–95% B; 1.50–2.00 min, 95% B; 2.00–2.01 min, 95–10% B; the low rate was 0.85 mL/min. ESI was conducted in positive ion mode. MRM was utilized to quantify each metabolite, detecting the following transitions: m/z 152.1/110 for acetaminophen, 312.1/230.0 for 4′-Hydroxydiclofenac, 235.0/150.0 for 4′-hydroxymephentoin, 258.2/199.1 for Dextrorphan, 342.1/203.0 for 1′-hydroxymidazolam, 161.1/133.1 for hydroxycoumarin, and 184.0/120.0 for 6-hydroxyclozoxadone.
# [3] = molecular target: CYP2C9 (Homo sapiens, UniProt P11712); test: CYP inhibition in liver microsomes (diclofenac); conditions: IC50, CYP 2C9, marker substrate diclofenac
# Chain of CYP2C9 (P11712 whole entry): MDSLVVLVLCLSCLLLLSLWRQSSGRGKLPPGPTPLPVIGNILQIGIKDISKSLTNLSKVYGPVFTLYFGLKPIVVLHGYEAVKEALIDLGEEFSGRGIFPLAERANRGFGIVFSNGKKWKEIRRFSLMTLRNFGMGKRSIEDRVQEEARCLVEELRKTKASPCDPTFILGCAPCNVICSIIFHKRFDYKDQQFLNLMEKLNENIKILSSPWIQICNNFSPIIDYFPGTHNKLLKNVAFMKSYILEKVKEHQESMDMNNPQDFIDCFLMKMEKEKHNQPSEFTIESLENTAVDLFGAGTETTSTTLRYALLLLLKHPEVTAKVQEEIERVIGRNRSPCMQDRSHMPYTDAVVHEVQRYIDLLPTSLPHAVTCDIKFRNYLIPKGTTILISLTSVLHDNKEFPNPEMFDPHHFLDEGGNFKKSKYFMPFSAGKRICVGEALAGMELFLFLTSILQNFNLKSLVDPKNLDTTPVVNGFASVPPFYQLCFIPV
# Description: as §1, with “After centrifuging at 4000 rpm for 15 min, the supernatant was transferred and analyzed using LC-MS/MS to detect the corresponding metabolites.” left out
# An API 4000 LC/tandem mass spectrometry was used to analyze the concentration of metabolites of various chemical agents using a validated mode. An Atlantis T3 column (2.1 mm × 50 mm, 5 μm) was utilized, employing mobile phases consisting of a 0.1% formic acid solution (A) and a 0.1% acetonitrile formate solution (B). […] ESI was conducted in positive ion mode.
SMILES,"Cmax ([1]; Sprague-Dawley, rat, kidney, po, read-out: Cmax)","Tmax ([1]; Sprague-Dawley, read-out: Tmax)",AUC(0–t) [1],AUC(0–∞) [1],IC50 [2],IC50 [3],AUC0–24 of (−)-farrerol relative to (+)-farrerol [1],Tmax [1],Cmax [1]
"Cc1c(O)c(C)c2c(c1O)C(=O)CC(c1ccc(O)cc1)O2 (single isomer, unassigned; (+)) [(+)-farrerol, 2,3-dihydro-5,7-dihydroxy-2-(4-hydroxyphenyl)-6,8-dimethyl-4-benzopyrone]",3020 ± 350 ng/g,1 h,23.93 ± 2.11 µg·h/g,25.70 ± 2.09 µg·h/g,0.588 µM,1.97 µM,–,–,–
"Cc1c(O)c(C)c2c(c1O)C(=O)CC(c1ccc(O)cc1)O2 (single isomer, unassigned; (-)) [(−)-farrerol, 2,3-dihydro-5,7-dihydroxy-2-(4-hydroxyphenyl)-6,8-dimethyl-4-benzopyrone]",–,–,28.89 ± 2.53 * µg/g*h,30.31 ± 2.47 * µg/g*h,1.02 µM,1.57 µM,1.20 times,1.00 h,4.18 ± 0.48 * µg/g
